Measurements published in the NIST ThermoML archive (doi:10.1021/je600519p).

Assay: xn = mol fraction of the nth substance listed
Details: 101 kPa, Liquid

CCOC(=O)OCC [diethyl carbonate] + CCCCCCO
Details	mass density [kg/m3]	speed of sound [m/s]	viscosity [mPa·s]
293.15 K, x1 = 0.0502	825.96	1301	4.731
293.15 K, x1 = 0.1123	834.86	1291	4.164
293.15 K, x1 = 0.1499	840.29	1285	3.715
293.15 K, x1 = 0.2103	849.1	1275	3.178
293.15 K, x1 = 0.2508	855.05	1268	2.837
293.15 K, x1 = 0.3121	864.19	1259	2.382
293.15 K, x1 = 0.3576	871.02	1252	2.078
293.15 K, x1 = 0.4113	879.15	1245	1.757
293.15 K, x1 = 0.4632	887.08	1239	1.488
293.15 K, x1 = 0.5111	894.51	1234	1.247
293.15 K, x1 = 0.552	900.88	1230	1.115
293.15 K, x1 = 0.6008	908.59	1226	0.956
293.15 K, x1 = 0.6498	916.39	1222	0.863
293.15 K, x1 = 0.7108	926.19	1219	0.859
293.15 K, x1 = 0.7554	933.45	1216	0.84
293.15 K, x1 = 0.8112	942.65	1213	0.831
293.15 K, x1 = 0.8501	949.13	1211	0.825
293.15 K, x1 = 0.9002	957.5	1208	0.818
293.15 K, x1 = 0.9555	966.89	1206	0.803
303.15 K, x1 = 0.0502	818.55	1267	3.486
303.15 K, x1 = 0.1123	827.16	1256	3.03
303.15 K, x1 = 0.1499	832.48	1249	2.796
303.15 K, x1 = 0.2103	841.04	1240	2.403
303.15 K, x1 = 0.2508	846.79	1234	2.165
303.15 K, x1 = 0.3121	855.69	1225	1.859
303.15 K, x1 = 0.3576	862.23	1217	1.621
303.15 K, x1 = 0.4113	870.21	1210	1.414
303.15 K, x1 = 0.4632	877.88	1204	1.22
303.15 K, x1 = 0.5111	885.13	1200	1.063
303.15 K, x1 = 0.552	891.35	1197	0.951
303.15 K, x1 = 0.6008	898.87	1194	0.844
303.15 K, x1 = 0.6498	906.42	1193	0.811
303.15 K, x1 = 0.7108	915.93	1192	0.804
303.15 K, x1 = 0.7554	923.08	1191	0.774
303.15 K, x1 = 0.8112	932.03	1190	0.748
303.15 K, x1 = 0.8501	938.29	1189	0.73
303.15 K, x1 = 0.9002	946.57	1188	0.724
303.15 K, x1 = 0.9555	955.77	1187	0.713
313.15 K, x1 = 0.0502	811.04	1252	2.621
313.15 K, x1 = 0.1123	819.37	1236	2.339
313.15 K, x1 = 0.1499	824.54	1224	2.115
313.15 K, x1 = 0.2103	832.78	1211	1.856
313.15 K, x1 = 0.2508	838.35	1203	1.687
313.15 K, x1 = 0.3121	846.97	1192	1.466
313.15 K, x1 = 0.3576	853.42	1185	1.319
313.15 K, x1 = 0.4113	861.12	1177	1.16
313.15 K, x1 = 0.4632	868.59	1170	1.031
313.15 K, x1 = 0.5111	875.61	1165	0.912
313.15 K, x1 = 0.552	881.55	1162	0.826
313.15 K, x1 = 0.6008	888.91	1158	0.744
313.15 K, x1 = 0.6498	896.35	1155	0.689
313.15 K, x1 = 0.7108	905.65	1153	0.61
313.15 K, x1 = 0.7554	912.55	1152	0.607
313.15 K, x1 = 0.8112	921.16	1151	0.602
313.15 K, x1 = 0.8501	927.49	1150	0.606
313.15 K, x1 = 0.9002	935.57	1148	0.61
313.15 K, x1 = 0.9555	944.49	1146	0.615
323.15 K, x1 = 0.0502	803.29	1204	2.06
323.15 K, x1 = 0.1123	811.3	1184	1.825
323.15 K, x1 = 0.1499	816.2	1172	1.689
323.15 K, x1 = 0.2103	824.2	1160	1.488
323.15 K, x1 = 0.2508	829.57	1153	1.367
323.15 K, x1 = 0.3121	837.88	1143	1.22
323.15 K, x1 = 0.3576	844.05	1137	1.093
323.15 K, x1 = 0.4113	851.48	1131	0.97
323.15 K, x1 = 0.4632	858.73	1126	0.857
323.15 K, x1 = 0.5111	865.59	1123	0.765
323.15 K, x1 = 0.552	871.51	1121	0.689
323.15 K, x1 = 0.6008	878.65	1119	0.607
323.15 K, x1 = 0.6498	885.85	1117	0.568
323.15 K, x1 = 0.7108	894.96	1115	0.532
323.15 K, x1 = 0.7554	901.77	1114	0.535
323.15 K, x1 = 0.8112	910.41	1113	0.537
323.15 K, x1 = 0.8501	916.42	1112	0.54
323.15 K, x1 = 0.9002	924.3	1111	0.544
323.15 K, x1 = 0.9555	933.24	1110	0.548
